Values after ≈ are worked out from the molar mass of the structure shown. Read-outs that look alike come from different tables or passages of the source.
What was measured:
Assay type in all cases: physicochemical
[1] = Solubility of bis-hydrochloride Form I by HPLC test and observation test
Description: Solubility was measured by HPLC according to KP, USP and EP general chapters. […] The results of solubility were same between HPLC test and observation test.

[2] = Stress stability test at 60° C.
Description: In order to compare physicochemical stability among the crystalline form prepared in Example 3 (crystalline Formula (I) bis-hydrochloride Form I) and 16 (Formula (I) crystalline free base), and the amorphous form prepared in Comparative Example 1, a stress stability test was conducted by storing samples at 60° C., for different periods of time up to 4 weeks.

[3] = Dissociation constant (pKa), GLpKa method, Sirius T3; conditions: for pKa: MDM co-solvent solution (ISA Water/MeOH/ACN/p-Dioxane), 43% MDM solution
Description: Based on these pKa values, Formula (I) is believed to be weakly basic compound.
The dissociation, pKa, was measured with a T3 (Sirius Analytical Instrument Ltd., UK). About 1 mg of Formula (I) bis-hydrochloride was transferred to a GLpKa beaker, dissolved with 43% to 53% MDM solution (ISA Water/MeOH/ACN/p-Dioxane=40/20/20/20, Sirius), adjusted to pH 1.8 with 0.5 N HCl, and titrated up to pH 12.2 with 0.5 N KOH. The pKa as an aqueous solution was calculated by extrapolation.

[4] = as an aqueous solution, calculated by extrapolation

solubility ([1]; ACN): 113431 mL/g
Solubility Observation ([1]; ACN, listed as Formula (I) bis-hydrochloride Form I): Practically insoluble
solubility ([1]; DMSO): 8 mL/g
Solubility Observation ([1]; DMSO, listed as Formula (I) bis-hydrochloride Form I): Freely soluble
solubility ([1]; Dichloromethane): 366289 mL/g
Solubility Observation ([1]; Dichloromethane, listed as Formula (I) bis-hydrochloride Form I): Practically insoluble
solubility ([1]; Ethanol): 1316 mL/g
Solubility Observation ([1]; Ethanol, listed as Formula (I) bis-hydrochloride Form I): Very slightly soluble
solubility ([1]; Ethyl acetate): 356535 mL/g
Solubility Observation ([1]; Ethyl acetate, listed as Formula (I) bis-hydrochloride Form I): Practically insoluble
solubility ([1]; Ethyl ether): 522061 mL/g
Solubility Observation ([1]; Ethyl ether, listed as Formula (I) bis-hydrochloride Form I): Practically insoluble
solubility ([1]; Methanol): 58 mL/g
Solubility Observation ([1]; Methanol, listed as Formula (I) bis-hydrochloride Form I): Sparingly soluble
solubility ([1]; Water): 654940 mL/g
Solubility Observation ([1]; Water, listed as Formula (I) bis-hydrochloride Form I): Practically insoluble
solubility ([1]; aqueous buffer, thermodynamic from solid, pH 3.0 buffer, read-out: Solubility): 20 µg/mL (≈ 41.8 µM)
solubility ([1]; aqueous buffer, thermodynamic from solid, pH 4.0 buffer, read-out: Solubility): 3 µg/mL (≈ 6.26 µM)
solubility ([1]; aqueous buffer, thermodynamic from solid, pH 5.0 buffer, read-out: Solubility): 0.09 µg/mL (≈ 0.188 µM)
solubility ([1]; aqueous buffer, thermodynamic from solid, pH 6.0 buffer, read-out: Solubility): 0.1 µg/mL (≈ 0.209 µM)
solubility ([1]; aqueous buffer, thermodynamic from solid, pH 6.8 buffer, read-out: Solubility): 0.09 µg/mL (≈ 0.188 µM)
solubility ([1]; aqueous buffer, thermodynamic from solid, pH 7.0 buffer, read-out: Solubility): 0.06 µg/mL (≈ 0.125 µM)
solubility ([1]; aqueous buffer, thermodynamic from solid, pH 8.0 buffer, read-out: Solubility): 0.05 µg/mL (≈ 0.104 µM)
solubility ([1]; n-Hexane): 22316479 mL/g
Solubility Observation ([1]; n-Hexane, listed as Formula (I) bis-hydrochloride Form I): Practically insoluble
solubility ([1]; organic solvent or mixture, thermodynamic from solid, ACN, read-out: Solubility): 8 µg/mL (≈ 16.7 µM)
solubility ([1]; organic solvent or mixture, thermodynamic from solid, DMSO, read-out: Solubility): 131000 µg/mL (≈ 273000 µM)
solubility ([1]; organic solvent or mixture, thermodynamic from solid, Dichloromethane, read-out: Solubility): 2.7 µg/mL (≈ 5.64 µM)
solubility ([1]; organic solvent or mixture, thermodynamic from solid, Ethanol, read-out: Solubility): 800 µg/mL (≈ 1670 µM)
solubility ([1]; organic solvent or mixture, thermodynamic from solid, Ethyl acetate, read-out: Solubility): 2.8 µg/mL (≈ 5.85 µM)
solubility ([1]; organic solvent or mixture, thermodynamic from solid, Ethyl ether, read-out: Solubility): 1.9 µg/mL (≈ 3.97 µM)
solubility ([1]; organic solvent or mixture, thermodynamic from solid, Methanol, read-out: Solubility): 17400 µg/mL (≈ 36300 µM)
solubility ([1]; organic solvent or mixture, thermodynamic from solid, n-Hexane, read-out: Solubility): 0.04 µg/mL (≈ 0.0835 µM)
solubility ([1]; pH 1.2 buffer): 3811 mL/g
Solubility Observation ([1]; pH 1.2 buffer, listed as Formula (I) bis-hydrochloride Form I): Very slightly soluble
solubility ([1]; pH 2.0 buffer): 1688 mL/g
Solubility Observation ([1]; pH 2.0 buffer, listed as Formula (I) bis-hydrochloride Form I): Very slightly soluble
Solubility Observation ([1]; pH 3.0 buffer): Practically insoluble
solubility ([1]; pH 3.0 buffer): 42855 mL/g
Solubility Observation ([1]; pH 4.0 buffer): Practically insoluble
solubility ([1]; pH 4.0 buffer): 331069 mL/g
Solubility Observation ([1]; pH 5.0 buffer): Practically insoluble
solubility ([1]; pH 5.0 buffer): 10759731 mL/g
Solubility Observation ([1]; pH 6.0 buffer): Practically insoluble
solubility ([1]; pH 6.0 buffer): 9770999 mL/g
Solubility Observation ([1]; pH 6.8 buffer): Practically insoluble
solubility ([1]; pH 6.8 buffer): 11528283 mL/g
Solubility Observation ([1]; pH 7.0 buffer): Practically insoluble
solubility ([1]; pH 7.0 buffer): 16139597 mL/g
Solubility Observation ([1]; pH 8.0 buffer): Practically insoluble
solubility ([1]; pH 8.0 buffer): 21884199 mL/g
solubility ([1]; simulated gastric fluid, thermodynamic from solid, pH 1.2 buffer, read-out: Solubility): 300 µg/mL (≈ 626 µM)
solubility ([1]; simulated gastric fluid, thermodynamic from solid, pH 2.0 buffer, read-out: Solubility): 600 µg/mL (≈ 1250 µM)
solubility ([1]; thermodynamic from solid, Water, read-out: Solubility): 1.5 µg/mL (≈ 3.13 µM)
Purity(%) (A % by HPLC) ([2]; 2 weeks): 99.8%
Total impurities(%) (A % by HPLC) ([2]; 2 weeks): 0.16%
Purity(%) (A % by HPLC) ([2]; 4 weeks): 99.8%
Total impurities(%) (A % by HPLC) ([2]; 4 weeks): 0.23%
Purity(%) (A % by HPLC) ([2]; 1 day): 99.8%
Total impurities(%) (A % by HPLC) ([2]; 1 day): 0.17%
Purity(%) (A % by HPLC) ([2]; 3 days): 99.8%
Total impurities(%) (A % by HPLC) ([2]; 3 days): 0.15%
Purity(%) (A % by HPLC) ([2]; 7 days): 99.8%
Total impurities(%) (A % by HPLC) ([2]; 7 days): 0.19%
Purity(%) (A % by HPLC) ([2]; Initial): 99.8%
Total impurities(%) (A % by HPLC) ([2]; Initial): 0.17%
pKa ([3]; column 1, read-out: pKa (first value)): 3.85
pKa ([3]; column 1, read-out: pKa (second value)): 4.71
pKa ([3]; column 1, read-out: pKa (third value)): 10.4
pKa ([3]; column 2, read-out: pKa (first value)): 3.88
pKa ([3]; column 2, read-out: pKa (second value)): 4.7
pKa ([3]; column 2, read-out: pKa (third value)): 10.4
pKa ([3]; column 3, read-out: pKa (first value)): 3.84
pKa ([3]; column 3, read-out: pKa (second value)): 4.69
pKa ([3]; column 3, read-out: pKa (third value)): 10.4
pKa1 [3, 4]: 3.86
pKa2 [3, 4]: 4.73
pKa3 ([3]; as an aqueous solution, calculated by extrapolation, listed as Formula (I) bis-hydrochloride Form I): 10.3
Compound: Cc1ccc2c(Nc3cccc(Cl)c3F)nccc2c1NC(=O)c1csc2c(N)ncnc12 [Example 3, 4-amino-N-(1-((3-chloro-2-fluorophenyl)amino)-6-methylisoquinolin-5-yl)thieno[3,2-d]pyrimidine-7-carboxamide]
physicochemical stability (summary in words) ([2]; up to 4 weeks, listed as crystalline form (Form I) of the dihydrochloride): remarkably superior stability over the amorphous form
